Measurements reported in PMC8116058, “De novo macrocyclic peptides dissect energy coupling of a heterodimeric ABC transporter by multimode allosteric inhibition” (eLife, 2021).
Positions of bridges follow the written chain, without caps; N, C: chain ends. Non-standard residues stand in square brackets, D forms with d. Residues, ends and D or L forms follow the SMILES beside them. *: point of attachment. 5FAM = O=C1OC2(c3ccc(O)cc3Oc3cc(O)ccc32)c2ccc(C(=O)*)cc21; βAla = NCCC(=O)O

Target: T1, TmrAB reconstituted in liposomes (Thermus thermophilus, UniProt Q72J04+Q72J05)
T1 sequence (Q72J05 1-600): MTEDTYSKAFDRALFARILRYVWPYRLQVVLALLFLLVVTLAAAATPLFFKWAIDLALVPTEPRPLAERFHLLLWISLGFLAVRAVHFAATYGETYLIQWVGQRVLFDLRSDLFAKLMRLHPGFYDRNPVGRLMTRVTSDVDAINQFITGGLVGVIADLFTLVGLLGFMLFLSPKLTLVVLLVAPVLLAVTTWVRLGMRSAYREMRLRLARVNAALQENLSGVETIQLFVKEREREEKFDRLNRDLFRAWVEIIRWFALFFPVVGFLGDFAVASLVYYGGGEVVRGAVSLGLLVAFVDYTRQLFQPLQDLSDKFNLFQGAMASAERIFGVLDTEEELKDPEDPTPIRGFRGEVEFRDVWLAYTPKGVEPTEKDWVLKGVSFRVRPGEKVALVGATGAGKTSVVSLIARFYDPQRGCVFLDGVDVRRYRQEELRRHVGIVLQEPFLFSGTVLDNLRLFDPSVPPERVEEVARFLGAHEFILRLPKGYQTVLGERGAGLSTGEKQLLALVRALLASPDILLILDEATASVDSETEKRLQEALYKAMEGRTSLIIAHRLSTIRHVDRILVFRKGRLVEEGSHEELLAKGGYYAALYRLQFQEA
T1 sequence (Q72J04 1-578): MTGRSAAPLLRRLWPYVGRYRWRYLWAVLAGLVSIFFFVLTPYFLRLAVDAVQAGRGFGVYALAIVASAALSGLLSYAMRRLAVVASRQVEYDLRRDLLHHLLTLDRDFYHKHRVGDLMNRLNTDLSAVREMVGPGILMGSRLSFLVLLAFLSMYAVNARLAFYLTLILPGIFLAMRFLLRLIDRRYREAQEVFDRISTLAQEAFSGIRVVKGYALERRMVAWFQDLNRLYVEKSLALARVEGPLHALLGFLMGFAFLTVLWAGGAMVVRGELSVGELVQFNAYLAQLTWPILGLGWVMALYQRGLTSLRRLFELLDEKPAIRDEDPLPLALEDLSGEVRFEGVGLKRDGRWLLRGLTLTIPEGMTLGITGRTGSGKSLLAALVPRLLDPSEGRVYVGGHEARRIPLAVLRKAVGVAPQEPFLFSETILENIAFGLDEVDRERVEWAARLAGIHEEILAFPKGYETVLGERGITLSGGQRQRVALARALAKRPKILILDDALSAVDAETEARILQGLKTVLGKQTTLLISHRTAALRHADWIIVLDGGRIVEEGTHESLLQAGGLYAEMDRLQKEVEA
Assay: Filter-based transport assay, CP^Fs tested as substrates
Format: biochemical
Settings: TmrAB 0.4 µM in liposomes, C4F 3 µM or CP^F 1 µM, 5 min 45°C
Description: In order to investigate the functional impact of CPs, we examined the effect of the CPs on ATP hydrolysis and substrate transport of TmrAB (Figure 3A). We reconstituted TmrAB in liposomes and first assayed the ATPase activity. […] We next set out to investigate peptide transport by TmrAB using a filter-based transport assay. To investigate whether CPs are recognized as substrates by TmrAB, we added fluorescein-labeled CP^Fs and examined ATP-dependent translocation. In contrast to the linear substrate peptide C4F, none of the CP^Fs were transported by TmrAB (Figure 3C). Next, we examined ATP-dependent transport of C4F peptides in the presence and absence of the different CPs.
Figure 3. CP^Fs are potent inhibitors of ATP turnover and substrate transport. (A) Experimental scheme of ATP hydrolysis and peptide transport by TmrAB. (B) CP^Fs inhibit ATP hydrolysis. TmrAB in liposomes (100 nM) was incubated with ATP (2 mM, traced with [γ^32P]-ATP), and MgCl2 (5 mM) in the presence and absence of CP^Fs (1 µM) for 10 min at 45°C. Autohydrolysis was determined in the absence of TmrAB, and background turnover was conducted in the presence of EDTA (10 mM). Release of [γ^32P] was quantified by thin layer chromatography. (C) CP^Fs are not transported by TmrAB. TmrAB (0.4 µM) reconstituted in liposomes was incubated with C4F peptide (3 µM) or CP^Fs (1 µM) in the presence of ATP/ADP (3 mM) and MgCl2 (5 mM) for 5 min at 45°C. Since CP^Fs were dissolved in maximal 0.5% (v/v) of DMSO, C4F plus 0.5% DMSO served as control. Proteoliposomes were washed on filter plates, and transported peptides were quantified at λex/em = 485/520 nm. (D) Inhibition of substrate translocation. TmrAB in liposomes (0.4 µM) were incubated with C4F peptide (3 µM), ATP/ADP (3 mM), and MgCl2 (5 mM) in the presence and absence of CP^Fs (1 µM) for 15 min at 45°C. Transported peptides were quantified as described in (C). In (B–C), mean values ± SD (n = 3) are shown. Figure 3—source data 1. Source data for Figure 3.
TmrAB in liposomes (0.4 µM) were incubated with ATP/ADP (3 mM), MgCl2 (5 mM), C4F peptide (3 µM), and CP^Fs (1 µM) for 15 min at 45°C. […] Proteoliposomes were solubilized by adding SDS (1% [v/v]) in transport buffer for 10 min at 20°C. Transported peptides were quantified at λex/em = 485/520 nm using a microplate reader (CLARIOstar, BMG LABTECH).

Compound | Transported peptide (ADP 3 mM (background)) [µmol·g/min] | Transported peptide (ATP 3 mM) [µmol·g/min]
CC[C@H](C)[C@@H]1NC(=O)[C@H]([C@@H](C)O)NC(=O)[C@H](CC(C)C)NC(=O)[C@H](Cc2c[nH]c3ccccc23)NC(=O)[C@H](Cc2ccccc2)NC(=O)[C@H](CC(N)=O)NC(=O)[C@H](CCC(=O)O)NC(=O)[C@H](CC(C)C)NC(=O)[C@H](CS)NC(=O)[C@H](Cc2c[nH]cn2)NC(=O)[C@H](CO)NC(=O)[C@@H](Cc2ccc(O)cc2)NC(=O)CSC[C@@H](C(=O)NCC(=O)N[C@@H](CO)C(=O)NCCC(=O)NCCC(=O)N[C@@H](CCCNC(=N)N)C(=O)N[C@@H](CCCCNC(=O)c2ccc3c(c2)C(=O)OC32c3ccc(O)cc3Oc3cc(O)ccc32)C(N)=O)NC(=O)[C@H](CC(C)C)NC1=O [CP6] ({CH2CO}-[dY]SHCLENFWLTILCGS[βAla][βAla]RK(5FAM)-NH2; thioether N-14) | 0.38 | 0.33
CC(C)C[C@@H]1NC(=O)[C@H](Cc2ccccc2)NC(=O)CNC(=O)[C@H](CO)NC(=O)[C@H](Cc2ccccc2)NC(=O)[C@H](CC(=O)O)NC(=O)[C@@H]2CCCN2C(=O)[C@H]([C@@H](C)O)NC(=O)[C@@H](Cc2ccc(O)cc2)NC(=O)CSC[C@@H](C(=O)NCC(=O)N[C@@H](CO)C(=O)NCCC(=O)NCCC(=O)N[C@@H](CCCNC(=N)N)C(=O)N[C@@H](CCCCNC(=O)c2ccc3c(c2)C(=O)OC32c3ccc(O)cc3Oc3cc(O)ccc32)C(N)=O)NC(=O)[C@H](C)NC(=O)[C@H](CC(N)=O)NC(=O)[C@H](CCCNC(=N)N)NC(=O)[C@H](CC(C)C)NC(=O)[C@H](Cc2ccccc2)NC(=O)[C@H](C)NC1=O [CP12] ({CH2CO}-[dY]TPDFSGFLAFLRNACGS[βAla][βAla]RK(5FAM)-NH2; thioether N-16) | 0.55 | 0.44
CC[C@H](C)[C@@H]1NC(=O)[C@H](Cc2c[nH]c3ccccc23)NC(=O)[C@H](CC(N)=O)NC(=O)[C@H](C)NC(=O)[C@H](CO)NC(=O)[C@@H]2CCCN2C(=O)[C@H](CC(=O)O)NC(=O)[C@@H](Cc2ccc(O)cc2)NC(=O)CSC[C@@H](C(=O)NCC(=O)N[C@@H](CO)C(=O)NCCC(=O)NCCC(=O)N[C@@H](CCCNC(=N)N)C(=O)N[C@@H](CCCCNC(=O)c2ccc3c(c2)C(=O)OC32c3ccc(O)cc3Oc3cc(O)ccc32)C(N)=O)NC(=O)[C@H]([C@@H](C)O)NC(=O)[C@H](CC(C)C)NC(=O)[C@H](CC(C)C)NC(=O)[C@H](C(C)C)NC(=O)[C@H](CC(C)C)NC1=O [CP13] ({CH2CO}-[dY]DPSANWILVLLTCGS[βAla][βAla]RK(5FAM)-NH2; thioether N-14; C-terminus assumed) | 0.28 | 0.33
CC(C)[C@@H]1NC(=O)[C@H](Cc2ccccc2)NC(=O)[C@@H]2CCCN2C(=O)[C@H](CC(N)=O)NC(=O)[C@H](Cc2c[nH]c3ccccc23)NC(=O)[C@H](C(C)C)NC(=O)[C@H](Cc2ccc(O)cc2)NC(=O)[C@H](Cc2ccccc2)NC(=O)[C@@H](Cc2ccc(O)cc2)NC(=O)CSC[C@@H](C(=O)NCC(=O)N[C@@H](CO)C(=O)NCCC(=O)NCCC(=O)N[C@@H](CCCNC(=N)N)C(=O)N[C@@H](CCCCNC(=O)c2ccc3c(c2)C(=O)OC32c3ccc(O)cc3Oc3cc(O)ccc32)C(N)=O)NC(=O)[C@H](CCCCN)NC(=O)[C@H](Cc2ccccc2)NC1=O [CP14] ({CH2CO}-[dY]FYVWNPFVFKCGS[βAla][βAla]RK(5FAM)-NH2; thioether N-12; C-terminus assumed) | 0.25 | 0.26
